From US10227357B2, “Compounds and methods for kinase modulation, and indications therefor” (Plexxikon Inc., priority 2012, dated 2019)

Target: T1, c-kit mutant D816V (Homo sapiens, UniProt P10721, D816V/DEL694-753)
T1 construct: residues 551-934, kinase insertion domain residues 694-753 deleted; 6x-histidine (N); made in house; host or cells: E. coli Arctic Express (DE3) RIL (Stratagene)
Assay: c-Kit mutant D816V biochemical assay, AlphaScreen
Settings: c-kit D816V biochemical inhibitory activity; read-out: Biochemical activity (IC50 μM) Kit D816V
Protocol: Compounds to be tested were dissolved in DMSO to a concentration of 20 mM. These were diluted 30 μl into 120 μl of DMSO (4 mM) and 1 μl was added to an assay plate. These were then serially diluted 1:3 (50 μl to 100 μl DMSO) for a total of 8 points. Plates were prepared such that each kinase reaction is 20 μl in 1× kinase buffer (25 mM HEPES, pH 7.2, 8 mM MgCl2, 2 mM MnCl2, 50 mM NaCl, 0.01% Brij, 1 mM DTT, 0.01% BSA), 5% DMSO and 10 μM ATP. […] After incubation of the kinase reaction for 30 minutes at room temperature, 5 μl of donor beads (Streptavidin coated beads (Perkin Elmer Life Science) final concentration 7.5 μg/ml) in stop buffer (25 mM Hepes pH 7.5, 100 mM EDTA, 0.01% BSA) was added, the sample was mixed and incubated for 20 minutes at room temperature before adding 5 μl of acceptor beads (PY20 coated beads (Perkin Elmer Life Science) final concentration 7.5 μg/ml) in stop buffer. The samples were incubated for 60 minutes at room temperature and the signal per well was read on EnVision reader. […] The signal vs. compound concentration was used to determine the IC50.
Cells were grown in Terrific Broth (TB) media to an OD600 of 0.6 at 37° C. at which temperature was reduced to 10° C., protein was induced with 1.0 mM IPTG for 18 hours and harvested by centrifugation at 8000×g for 20 minutes. Cells were re-suspended in 0.1M KPO4 pH 8.0, 250 mM NaCl, 10% Glycerol, 0.75% NP-40, 25 mM Imidazole, 5 mM BME with 0.2 mg/ml Lysosyme, 2.0 mM PMSF, 25 μg/ml DNAse I, incubated in ice for 30 minutes and lysed with a cell disruptor (MicroFluidics). The lysate was clarified by centrifugation at 20,000×g for 2 hours. The protein was captured with Talon resin (Clontech). Contaminating proteins were washed off with 25 mM Tris-HCl pH 8.3, 250 mM NaCl, 15% Glycerol, 1% Triton X-100, and protein eluted using 100 mM EDTA. The protein was further purified using Gel Filtration column 26/600 Superdex 200 (GE) in 50 mM Tris-HCl, pH 8.0, 250 mM NaCl, 15% Glycerol, 5 mM BME. The protein was aliquoted and flash-frozen in liquid Nitrogen.

T1 sequence (P10721 with tags, fused parts or gaps DEL694-753/D816V): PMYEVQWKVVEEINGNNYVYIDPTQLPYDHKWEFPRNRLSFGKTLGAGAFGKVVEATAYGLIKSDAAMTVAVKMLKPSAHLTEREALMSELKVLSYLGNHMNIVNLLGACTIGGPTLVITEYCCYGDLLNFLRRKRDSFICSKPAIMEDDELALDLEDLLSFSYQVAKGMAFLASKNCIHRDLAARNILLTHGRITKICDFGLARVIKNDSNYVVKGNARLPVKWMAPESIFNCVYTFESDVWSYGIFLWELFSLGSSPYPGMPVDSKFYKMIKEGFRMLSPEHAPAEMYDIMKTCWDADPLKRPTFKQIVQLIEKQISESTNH

Compound	IC50
C[C@H](NC(=O)N1CCN(c2ncnc3[nH]c(-c4ccc(F)cc4)cc23)CC1)c1cccc(C(F)(F)F)c1 [P-0033, 4-[6-(4-fluorophenyl)-7H-pyrrolo[2,3-d]pyrimidin-4-yl]-N-[(1S)-1-[3-(trifluoromethyl)phenyl]ethyl]piperazine-1-carboxamide]	0.0001 to 1 µM
Cc1cc2c(C3=CCC(NS(=O)(=O)c4ccc(OC(C)C)cc4)CC3)ncnc2[nH]1 (stereo not drawn) [P-0652, 4-isopropoxy-N-[4-(6-methyl-7H-pyrrolo[2,3-d]pyrimidin-4-yl)cyclohex-3-en-1-yl]benzenesulfonamide]	1 to 10 µM
O=C(NCCc1ccc(F)cc1)NC1CCN(c2ncnc3[nH]ccc23)CC1 [P-0511, 1-[2-(4-fluorophenyl)ethyl]-3-[1-(7H-pyrrolo[2,3-d]pyrimidin-4-yl)-4-piperidyl]urea]	10 to 200 µM
CCCn1cc(S(=O)(=O)NC2CCN(c3ncnc4[nH]c(-c5cnn(C)c5)cc34)CC2)cn1 [P-0484, N-[1-[6-(1-methylpyrazol-4-yl)-7H-pyrrolo[2,3-d]pyrimidin-4-yl]-4-piperidyl]-1-propyl-pyrazole-4-sulfonamide]	1 to 10 µM
Cc1ccccc1C(=O)c1c[nH]c2ncnc(N3CCN(C(=O)OC(C)(C)C)CC3)c12 [P-0187, tert-butyl 4-[5-(2-methylbenzoyl)-7H-pyrrolo[2,3-d]pyrimidin-4-yl]piperazine-1-carboxylate]	0.0001 to 1 µM
COc1cc(-c2cc3c(N4CCC(NS(=O)(=O)c5ccc(Cl)cc5)CC4)ncnc3[nH]2)ccn1 [P-0666, 4-chloro-N-[1-[6-(2-methoxy-4-pyridyl)-7H-pyrrolo[2,3-d]pyrimidin-4-yl]-4-piperidyl]benzenesulfonamide]	0.0001 to 1 µM
O=C(Nc1cccnc1)N1CCN(c2ncnc3[nH]ccc23)CC1 [P-0152, N-(3-pyridyl)-4-(7H-pyrrolo[2,3-d]pyrimidin-4-yl)piperazine-1-carboxamide]	0.0001 to 1 µM
COc1cccc([C@H](C)NC(=O)N2CCN(c3ncnc4[nH]c(-c5ccc(Cl)cc5)cc34)CC2)c1 [P-0038, 4-[6-(4-chlorophenyl)-7H-pyrrolo[2,3-d]pyrimidin-4-yl]-N-[(1S)-1-(3-methoxyphenyl)ethyl]piperazine-1-carboxamide]	0.0001 to 1 µM
O=S(=O)(NC1CCN(c2ncnc3[nH]c(C#CC4CC4)cc23)CC1)c1ccc(Cl)cc1 [P-0471, 4-chloro-N-[1-[6-(2-cyclopropylethynyl)-7H-pyrrolo[2,3-d]pyrimidin-4-yl]-4-piperidyl]benzenesulfonamide]	10 to 200 µM
Cc1cc2c(N3CCC(NS(=O)(=O)c4ccc(OC(F)F)cc4)CC3)ncnc2[nH]1 [P-0656, 4-(difluoromethoxy)-N-[1-(6-methyl-7H-pyrrolo[2,3-d]pyrimidin-4-yl)-4-piperidyl]benzenesulfonamide]	10 to 200 µM
COc1cccc(NC(=O)N2CCN(c3ncnc4[nH]c(-c5cccnc5)cc34)CC2)c1 [P-0231, N-(3-methoxyphenyl)-4-[6-(3-pyridyl)-7H-pyrrolo[2,3-d]pyrimidin-4-yl]piperazine-1-carboxamide]	1 to 10 µM
C[C@H](NC(=O)N1CCN(c2ncnc3[nH]c(-c4ccc(C#N)cc4)cc23)CC1)c1ccc(Cl)cc1 [P-0702, N-[(1S)-1-(4-chlorophenyl)ethyl]-4-[6-(4-cyanophenyl)-7H-pyrrolo[2,3-d]pyrimidin-4-yl]piperazine-1-carboxamide]	0.0001 to 1 µM
O=C(NCc1ccc(F)cc1)NC1CCN(c2ncnc3[nH]ccc23)CC1 [P-0509, 1-[(4-fluorophenyl)methyl]-3-[1-(7H-pyrrolo[2,3-d]pyrimidin-4-yl)-4-piperidyl]urea]	10 to 200 µM
CC[C@H](NC(=O)N1CCN(c2ncnc3[nH]c(-c4ccncc4)cc23)C[C@H]1C)c1ccccc1 [P-0054, (2R)-2-methyl-N-[(1S)-1-phenylpropyl]-4-[6-(4-pyridyl)-7H-pyrrolo[2,3-d]pyrimidin-4-yl]piperazine-1-carboxamide]	0.0001 to 1 µM
COc1cc2ncnc(-c3ccc(NS(=O)(=O)N4CCCC4)c(F)c3)c2cc1OC [P-0274, N-[4-(6,7-dimethoxyquinazolin-4-yl)-2-fluoro-phenyl]pyrrolidine-1-sulfonamide]	1 to 10 µM
O=S(=O)(NC1CCN(c2ncnc3[nH]c(-c4ccc(Cl)cc4)cc23)CC1)c1cccc(OC(F)(F)F)c1 [P-0499, N-[1-[6-(4-chlorophenyl)-7H-pyrrolo[2,3-d]pyrimidin-4-yl]-4-piperidyl]-3-(trifluoromethoxy)benzenesulfonamide]	1 to 10 µM
Cn1cc(-c2cc3c(N4CCC(NS(=O)(=O)c5cccc(OC(F)(F)F)c5)CC4)ncnc3[nH]2)cn1 [P-0500, N-[1-[6-(1-methylpyrazol-4-yl)-7H-pyrrolo[2,3-d]pyrimidin-4-yl]-4-piperidyl]-3-(trifluoromethoxy)benzenesulfonamide]	10 to 200 µM
O=S(=O)(Nc1ccc(-c2ncnc3[nH]c(-c4ccc(F)cc4)cc23)cc1)N1CCCC1 [P-0411, N-[4-[6-(4-fluorophenyl)-7H-pyrrolo[2,3-d]pyrimidin-4-yl]phenyl]pyrrolidine-1-sulfonamide]	1 to 10 µM
CCNS(=O)(=O)c1ccc(-c2ncnc3[nH]c(-c4ccc(F)cc4)cc23)cc1 [P-0422, N-ethyl-4-[6-(4-fluorophenyl)-7H-pyrrolo[2,3-d]pyrimidin-4-yl]benzenesulfonamide]	10 to 200 µM
C[C@H]1CN(c2ncnc3[nH]c(-c4ccncc4)cc23)CCN1C(=O)NCc1ccc(F)cc1 [P-0041, (2S)-N-[(4-fluorophenyl)methyl]-2-methyl-4-[6-(4-pyridyl)-7H-pyrrolo[2,3-d]pyrimidin-4-yl]piperazine-1-carboxamide]	0.0001 to 1 µM
Cc1ccc(NS(=O)(=O)N2CCN(c3ncnc4[nH]c(-c5ccc(Cl)cc5)cc34)CC2)cc1 [P-0142, 4-[6-(4-chlorophenyl)-7H-pyrrolo[2,3-d]pyrimidin-4-yl]-N-(p-tolyl)piperazine-1-sulfonamide]	10 to 200 µM
Cc1csc(-c2cc3c(N4CCC(NS(=O)(=O)c5ccc(OC(F)(F)F)cc5)CC4)ncnc3[nH]2)c1 [P-0661, N-[1-[6-(4-methyl-2-thienyl)-7H-pyrrolo[2,3-d]pyrimidin-4-yl]-4-piperidyl]-4-(trifluoromethoxy)benzenesulfonamide]	10 to 200 µM
O=S(=O)(Nc1ccc(-c2ncnc3[nH]c(-c4ccc(F)cc4F)cc23)c(F)c1)c1ccc(F)cc1 [P-0332, N-[4-[6-(2,4-difluorophenyl)-7H-pyrrolo[2,3-d]pyrimidin-4-yl]-3-fluoro-phenyl]-4-fluoro-benzenesulfonamide]	0.0001 to 1 µM
CC1(C)C=C(c2cc3c(N4CCC(NS(=O)(=O)c5ccc(OC(F)(F)F)cc5)CC4)ncnc3[nH]2)CC(C)(C)O1 [P-0663, N-[1-[6-(2,2,6,6-tetramethyl-3H-pyran-4-yl)-7H-pyrrolo[2,3-d]pyrimidin-4-yl]-4-piperidyl]-4-(trifluoromethoxy)benzenesulfonamide]	10 to 200 µM
O=C(NC1CCCC1)N1CCN(c2ncnc3[nH]c(-c4ccc(F)cc4)cc23)CC1 [P-0148, N-cyclopentyl-4-[6-(4-fluorophenyl)-7H-pyrrolo[2,3-d]pyrimidin-4-yl]piperazine-1-carboxamide]	10 to 200 µM
O=S(=O)(NCc1ccccc1)c1ccc(-c2ncnc3cc(-c4ccc(F)cc4)sc23)cc1 [P-0635, N-benzyl-4-[6-(4-fluorophenyl)thieno[3,2-d]pyrimidin-4-yl]benzenesulfonamide]	0.0001 to 1 µM
Cc1csc(S(=O)(=O)NC2CCN(c3ncnc4[nH]c(-c5cnn(C)c5)cc34)CC2)c1 [P-0453, 4-methyl-N-[1-[6-(1-methylpyrazol-4-yl)-7H-pyrrolo[2,3-d]pyrimidin-4-yl]-4-piperidyl]thiophene-2-sulfonamide]	0.0001 to 1 µM
O=S(=O)(NC1CCN(c2ncnc3[nH]c(-c4ccc(Cl)cc4)cc23)CC1)c1ccc(F)cc1 [P-0481, N-[1-[6-(4-chlorophenyl)-7H-pyrrolo[2,3-d]pyrimidin-4-yl]-4-piperidyl]-4-fluoro-benzenesulfonamide]	10 to 200 µM
COc1ccc(S(=O)(=O)Nc2ccc(-c3ncnc4cc(OC)c(OC)cc34)cc2F)cc1 [P-0273, N-[4-(6,7-dimethoxyquinazolin-4-yl)-2-fluoro-phenyl]-4-methoxy-benzenesulfonamide]	0.0001 to 1 µM
Cn1cc(-c2cc3c(N4CCC(NS(=O)(=O)c5ccccc5OC(F)(F)F)CC4)ncnc3[nH]2)cn1 [P-0493, N-[1-[6-(1-methylpyrazol-4-yl)-7H-pyrrolo[2,3-d]pyrimidin-4-yl]-4-piperidyl]-2-(trifluoromethoxy)benzenesulfonamide]	10 to 200 µM
